# Measured values published in patent publication US10670605B2, “Cysteine reactive probes and uses thereof” (The Scripps Research Institute, priority 2015, dated 2020).
# Tests used:
# Test in all cases: Competitive isoTOP-ABPP, cell lysates
# Assay type in all cases: binding
# [1] = target: PFKFB4 C159 (Q16877) (Homo sapiens, UniProt Q16877); conditions: for isoTOP-ABPP ratio (reactivity profile), Q16877_C159: 500 μm in-vitro ramos
# [2] = target: T1, CYR61 C39 (O00622) (Homo sapiens, UniProt O00622); conditions: for isoTOP-ABPP reactivity profile ratio, O00622_C39 / isoTOP-ABPP reactivity ratio, O00622_C39: 500 μm, in-vitro_ramos_231; for isoTOP-ABPP ratio (reactivity profile), O00622_C39: 500 μm in-vitro ramos_231; for isoTOP-ABPP ratio, O00622_C39: invitro, 231; for R value (DMSO/fragment): in vitro, MDA-MB-231
# T1 sequence (O00622 25-381): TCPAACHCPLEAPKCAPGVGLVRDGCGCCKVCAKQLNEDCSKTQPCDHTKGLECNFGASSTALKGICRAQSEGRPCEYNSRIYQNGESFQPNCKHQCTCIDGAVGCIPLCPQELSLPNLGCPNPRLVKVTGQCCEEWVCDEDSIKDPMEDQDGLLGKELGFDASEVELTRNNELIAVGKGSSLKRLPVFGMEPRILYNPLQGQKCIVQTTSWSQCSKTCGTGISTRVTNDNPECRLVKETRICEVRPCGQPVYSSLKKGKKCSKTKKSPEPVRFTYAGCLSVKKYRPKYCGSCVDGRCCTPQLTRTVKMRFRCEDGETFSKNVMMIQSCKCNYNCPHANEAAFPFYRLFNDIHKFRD
# [3] = target: RRAGC C377 (Q9HB90) (Homo sapiens, UniProt Q9HB90); conditions: for isoTOP-ABPP reactivity ratio, Q9HB90_C377 / isoTOP-ABPP reactivity profile ratio, Q9HB90_C377: 500 μm; for isoTOP-ABPP ratio, Q9HB90_C377: invitro; for R value (DMSO/fragment): in vitro, MDA-MB-231
# [4] = target: T2, IREB2 C137 (P48200) (Homo sapiens, UniProt P48200)
# T2 sequence (P48200 1-963): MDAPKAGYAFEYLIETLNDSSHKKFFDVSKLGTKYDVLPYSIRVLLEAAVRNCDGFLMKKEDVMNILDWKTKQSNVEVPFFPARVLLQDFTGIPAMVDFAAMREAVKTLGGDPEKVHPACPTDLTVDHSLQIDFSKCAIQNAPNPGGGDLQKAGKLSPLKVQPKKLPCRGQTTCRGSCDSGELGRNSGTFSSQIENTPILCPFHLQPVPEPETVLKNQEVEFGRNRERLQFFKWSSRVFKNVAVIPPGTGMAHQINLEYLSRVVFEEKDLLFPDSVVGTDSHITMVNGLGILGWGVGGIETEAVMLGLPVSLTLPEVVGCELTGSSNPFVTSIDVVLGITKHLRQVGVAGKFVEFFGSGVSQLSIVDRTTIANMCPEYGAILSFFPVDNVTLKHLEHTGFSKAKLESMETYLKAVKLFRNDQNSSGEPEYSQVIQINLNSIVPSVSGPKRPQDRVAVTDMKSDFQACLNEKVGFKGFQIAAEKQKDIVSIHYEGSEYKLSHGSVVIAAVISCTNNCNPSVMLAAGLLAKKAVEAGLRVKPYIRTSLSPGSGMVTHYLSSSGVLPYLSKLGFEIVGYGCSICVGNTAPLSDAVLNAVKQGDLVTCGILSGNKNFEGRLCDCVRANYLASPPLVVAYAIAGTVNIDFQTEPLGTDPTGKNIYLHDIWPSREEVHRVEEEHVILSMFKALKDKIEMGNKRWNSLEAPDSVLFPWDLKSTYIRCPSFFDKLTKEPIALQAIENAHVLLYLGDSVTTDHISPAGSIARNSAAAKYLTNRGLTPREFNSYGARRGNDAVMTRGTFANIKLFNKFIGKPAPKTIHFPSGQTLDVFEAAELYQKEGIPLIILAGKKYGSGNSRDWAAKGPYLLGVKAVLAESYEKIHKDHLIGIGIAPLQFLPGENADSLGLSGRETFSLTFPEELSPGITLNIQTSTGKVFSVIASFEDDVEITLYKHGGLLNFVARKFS
# Sequence of PFKFB4 C159 (Q16877) (Q16877 whole entry, the tested form may be a part): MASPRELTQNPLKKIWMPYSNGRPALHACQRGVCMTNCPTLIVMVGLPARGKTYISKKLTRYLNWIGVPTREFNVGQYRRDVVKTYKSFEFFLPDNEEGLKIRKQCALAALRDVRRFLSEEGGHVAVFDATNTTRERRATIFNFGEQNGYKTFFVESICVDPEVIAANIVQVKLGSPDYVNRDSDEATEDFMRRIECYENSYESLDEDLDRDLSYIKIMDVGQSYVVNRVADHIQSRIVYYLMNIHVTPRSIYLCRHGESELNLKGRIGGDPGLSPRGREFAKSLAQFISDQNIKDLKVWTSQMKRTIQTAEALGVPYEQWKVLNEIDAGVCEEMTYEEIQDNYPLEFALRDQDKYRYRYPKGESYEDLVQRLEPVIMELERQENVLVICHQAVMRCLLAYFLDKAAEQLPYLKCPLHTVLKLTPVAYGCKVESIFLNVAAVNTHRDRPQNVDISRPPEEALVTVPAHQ
# Sequence of RRAGC C377 (Q9HB90) (Q9HB90 2-399 limits assumed): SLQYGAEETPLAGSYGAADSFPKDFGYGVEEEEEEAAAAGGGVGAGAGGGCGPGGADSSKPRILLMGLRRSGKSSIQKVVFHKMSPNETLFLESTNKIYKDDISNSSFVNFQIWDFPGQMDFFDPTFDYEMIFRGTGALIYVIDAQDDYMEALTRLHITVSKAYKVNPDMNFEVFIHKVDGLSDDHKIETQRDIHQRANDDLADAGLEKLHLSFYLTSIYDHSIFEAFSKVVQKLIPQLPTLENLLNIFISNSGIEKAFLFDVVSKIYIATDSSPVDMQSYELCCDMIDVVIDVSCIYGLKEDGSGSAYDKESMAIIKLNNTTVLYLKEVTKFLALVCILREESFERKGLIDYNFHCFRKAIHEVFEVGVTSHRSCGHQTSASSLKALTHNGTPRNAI
# Sequence of RRAGC C377 (Q9HB90) (Q7L523 whole entry partner, the tested form may be a part): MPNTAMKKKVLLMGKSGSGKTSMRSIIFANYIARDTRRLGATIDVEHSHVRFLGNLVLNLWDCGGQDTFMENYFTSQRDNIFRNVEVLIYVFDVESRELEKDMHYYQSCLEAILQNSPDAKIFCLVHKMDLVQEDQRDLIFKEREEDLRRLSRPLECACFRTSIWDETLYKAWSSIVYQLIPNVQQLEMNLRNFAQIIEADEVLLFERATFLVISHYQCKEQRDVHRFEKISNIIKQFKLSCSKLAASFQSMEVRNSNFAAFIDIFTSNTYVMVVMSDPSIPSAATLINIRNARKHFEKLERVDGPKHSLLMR
structure (smiles),measurement,setting,value
O=C(CCl)N(Cc1ccc(F)cc1)C12CC3CC(CC(C3)C1)C2 [compound 34],"isoTOP-ABPP reactivity ratio, Q16877_C159","[1]; 500 μm, in-vitro_ramos",1.4
O=C(CCl)N1CCc2cc(Br)ccc21 [compound 50],"isoTOP-ABPP reactivity profile ratio, O00622_C39",[2],2.3
COc1ccccc1OCCNC(=O)CCl [compound 28],"isoTOP-ABPP ratio (reactivity profile), O00622_C39",[2],1.0
same,"isoTOP-ABPP ratio (reactivity profile), Q9HB90_C377",[3]; 500 μm in-vitro ramos_231,1.3
O=C(CCl)N1CCC(C(O)(c2ccccc2)c2ccccc2)CC1 [compound 20],"isoTOP-ABPP ratio (reactivity profile), P48200_C137",[4]; 500 μm in-vitro ramos,5.2
same,"isoTOP-ABPP ratio (reactivity profile), Q16877_C159",[1],1.0
CC(Br)C(=O)Nc1cc(C(F)(F)F)cc(C(F)(F)F)c1 (centres unmarked) [compound 24],"isoTOP-ABPP ratio (reactivity profile), Q9HB90_C377",[3]; 500 μm in-vitro ramos,1.5
Cc1ccc(C=C(C#N)C(=O)NCCN2CCOCC2)cc1 [compound 41],"isoTOP-ABPP reactivity ratio, P48200_C137","[4]; 500 μm, in-vitro_ramos_231",1.2
same,"isoTOP-ABPP reactivity ratio, Q9HB90_C377",[3]; in-vitro_ramos_231,1.1
O=C(CCl)NCCc1c[nH]c2ccccc12 [compound 13],"isoTOP-ABPP ratio, O00622_C39",[2]; 500 μM,1.2
same,"isoTOP-ABPP ratio, Q16877_C159","[1]; 500 μM, invitro, 231",0.9
same,"isoTOP-ABPP ratio, Q9HB90_C377","[3]; 500 μM, 231",2.1
O=C(CCl)N1CCOCC1 [compound 22],"isoTOP-ABPP ratio (reactivity profile), Q9HB90_C377",[3]; 500 μm in-vitro ramos,0.9
same,"isoTOP-ABPP ratio (reactivity profile), Q9HB90_C377",[3]; 500 μm in-vitro ramos_231,1.7
COc1ccc(C2CC(c3cccs3)=NN2C(=O)CCl)cc1 (centres unmarked) [compound 4],R value (DMSO/fragment),[2]; 250 μM,2.8
same,R value (DMSO/fragment),"[1]; 250 μM, in vitro, MDA-MB-231",1.4
same,R value (DMSO/fragment),[3]; 250 μM,3.5
CC(C)(C)c1cc(NC(=O)CCl)on1 [compound 32],"isoTOP-ABPP reactivity ratio, Q16877_C159","[1]; 500 μm, in-vitro_ramos",1.5
same,"isoTOP-ABPP reactivity ratio, Q9HB90_C377",[3]; in-vitro_ramos,1.5
O=C(CCl)Nc1ccc(-c2ccccc2)cc1 [compound 52],"isoTOP-ABPP reactivity profile ratio, P48200_C137","[4]; 500 μm, in-vitro_ramos",1.3
O=C(CCl)NC12CC3CC(CC(C3)C1)C2 [compound 21],"isoTOP-ABPP ratio (reactivity profile), Q16877_C159",[1],1.2
same,"isoTOP-ABPP ratio (reactivity profile), Q9HB90_C377",[3]; 500 μm in-vitro ramos_231,1.4
C=CC(=O)N1CCC(Cc2ccccc2)CC1 [compound 53],"isoTOP-ABPP reactivity profile ratio, Q9HB90_C377",[3]; in-vitro_ramos,1.1
O=C(CCl)Nc1cccc2ncccc12 [compound 51],"isoTOP-ABPP reactivity profile ratio, Q16877_C159","[1]; 500 μm, in-vitro_ramos",1.1
same,"isoTOP-ABPP reactivity profile ratio, Q9HB90_C377",[3]; in-vitro_ramos_231,0.6
Cn1cc(S(=O)(=O)N2CCOCC2)cc1C(=O)NC(=O)CCl [compound 11],"isoTOP-ABPP ratio, O00622_C39",[2]; 500 μM,9.6
same,"isoTOP-ABPP ratio, P48200_C137","[4]; 500 μM, invitro, ramos",3.7
same,"isoTOP-ABPP ratio, Q16877_C159","[1]; 500 μM, invitro, ramos",0.6
same,"isoTOP-ABPP ratio, Q9HB90_C377","[3]; 500 μM, ramos",1.6
C=CC(=O)Nc1cc(F)c(N2CCN(C(=O)OC(C)(C)C)CC2)c(F)c1 [compound 38],"isoTOP-ABPP reactivity ratio, O00622_C39",[2],0.8
same,"isoTOP-ABPP reactivity ratio, Q9HB90_C377",[3]; in-vitro_ramos_231,1.0
O=C(CCl)Nc1cc(C(F)(F)F)cc(C(F)(F)F)c1 [compound 3],R value (DMSO/fragment),[2]; 500 μM,4.0
same,R value (DMSO/fragment),"[1]; 500 μM, invitro, ramos",12.9
same,R value (DMSO/fragment),[3]; 500 μM,3.7
C=CC(=O)N(c1ccccc1)c1ccc(Br)cc1 [compound 5],"isoTOP-ABPP ratio, Q16877_C159","[1]; 500 μM, invitro, ramos",20.0
C=CC(=O)N(c1ccccc1)C1CCCCC1 [compound 46],"isoTOP-ABPP reactivity profile ratio, O00622_C39",[2],1.9
C=CC(=O)N(Cc1cccnc1)c1ccc(Oc2ccccc2)c(C(F)(F)F)c1 [compound 15],"isoTOP-ABPP ratio (reactivity profile), P48200_C137",[4]; 500 μm in-vitro ramos,2.0
COc1ccc2c(c1)CCCN2C(=O)CCl [compound 2],R value (DMSO/fragment),"[4]; 500 μM, invitro, ramos",10.5
same,R value (DMSO/fragment),[3]; 500 μM,20.0
CCN(CC)c1ccc(S(N)(=O)=O)cc1NC(=O)CCl [compound 30],"isoTOP-ABPP ratio (reactivity profile), Q9HB90_C377",[3]; 500 μm in-vitro ramos,1.4
C=CC(=O)N1CCC(c2noc3ccc(F)cc23)CC1 [compound 37],"isoTOP-ABPP reactivity ratio, P48200_C137","[4]; 500 μm, in-vitro_ramos",0.9
CC(Cl)C(=O)Nc1cc(C(F)(F)F)cc(C(F)(F)F)c1 (centres unmarked) [compound 25],"isoTOP-ABPP ratio (reactivity profile), O00622_C39",[2],1.0
same,"isoTOP-ABPP ratio (reactivity profile), Q9HB90_C377",[3]; 500 μm in-vitro ramos_231,1.0
N#C/C(=C\c1cc(C(F)(F)F)cc(C(F)(F)F)c1)C(N)=O [compound 23],"isoTOP-ABPP ratio (reactivity profile), O00622_C39",[2],4.4
same,"isoTOP-ABPP ratio (reactivity profile), P48200_C137",[4]; 500 μm in-vitro ramos,1.6
same,"isoTOP-ABPP ratio (reactivity profile), Q16877_C159",[1],1.0
same,"isoTOP-ABPP ratio (reactivity profile), Q9HB90_C377",[3]; 500 μm in-vitro ramos_231,1.5
CC(C)CCOCCNC(=O)CCl [compound 27],"isoTOP-ABPP ratio (reactivity profile), O00622_C39",[2],1.0
same,"isoTOP-ABPP ratio (reactivity profile), P48200_C137",[4]; 500 μm in-vitro ramos_231,1.4
same,"isoTOP-ABPP ratio (reactivity profile), Q9HB90_C377",[3]; 500 μm in-vitro ramos_231,1.0
C=CC(=O)Nc1cc(C)c(Br)cc1C [compound 40],"isoTOP-ABPP reactivity ratio, P48200_C137","[4]; 500 μm, in-vitro_ramos",1.1
same,"isoTOP-ABPP reactivity ratio, Q16877_C159","[1]; 500 μm, in-vitro_ramos",1.2
O=C(CCl)Nc1ccccc1C1CCCCCC1 [compound 35],"isoTOP-ABPP reactivity ratio, P48200_C137","[4]; 500 μm, in-vitro_ramos",1.1
O=C(CCl)NC1C(O)OC(CO)C(O)C1O (mixture of isomers) [compound 44],"isoTOP-ABPP reactivity profile ratio, Q9HB90_C377",[3]; in-vitro_ramos_231,0.7
O=C(CCl)N1CCN(S(=O)(=O)c2ccccc2F)CC1 [compound 10],"isoTOP-ABPP ratio, P48200_C137","[4]; 500 μM, invitro, ramos",2.1
same,"isoTOP-ABPP ratio, Q16877_C159","[1]; 500 μM, invitro, 231",1.2
O=C(CCl)N1CCN(CC(=O)N2CCOCC2)CC1 [compound 29],"isoTOP-ABPP ratio (reactivity profile), Q9HB90_C377",[3]; 500 μm in-vitro ramos_231,1.3
C=CC(=O)N(Cc1cccnc1)c1cc(C(F)(F)F)cc(C(F)(F)F)c1 [compound 31],"isoTOP-ABPP reactivity ratio, O00622_C39",[2],1.2
same,"isoTOP-ABPP reactivity ratio, Q9HB90_C377",[3]; in-vitro_ramos_231,2.2
